Some test systems named below: T47D; Hs-578T; MDA-N.
Holding throughout (assay): inhibition of tumour cell growth, NCI panel, 48 h

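A five-concentration, 48-hour dose response in 96-well plates underlies each endpoint, interpolated linearly between surrounding concentrations. The concentration for 50% growth inhibition is given as GI50.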 The source made the active and inactive calls. Rule as the data show it: active = GI50 up to about 1.1 µM and inactive = higher. Bounds are passed on as bounds.

Take `C=CCCCC1CCCNC1=S` (configuration not stated): the GI50 in the test with T47D, in the test with Hs-578T and in the test on MDA-N was > 100 µM (inactive) in each case.
With `Clc1ccc(C2ON=C(c3ccccc3)N2C23CC4CC(CC(C4)C2)C3)cc1` (configuration not stated), the GI50 in the test with T47D, in the test on Hs-578T and in the test on MDA-N was > 10 µM (inactive) each time.
In the case of `CSc1n[n+](C)cc(N)c1N`, the GI50 in the test on T47D and with MDA-N was > 100 µM (inactive) throughout.
As to `NCCN1C(=O)c2ccccc2C1c1ccc(Cl)cc1` (configuration not stated), the GI50 in the test on T47D, in the test with Hs-578T and with MDA-N was > 100 µM (inactive) in each case.
On to `N#CCCN(CCNc1ccccc1)C(=O)Nc1ccc(NC(=O)N(CCC#N)CCNc2ccccc2)cc1`, for which the results for the GI50 in the test on T47D, in the test with Hs-578T and in the test with MDA-N were > 58.1 µM (inactive), > 41.9 µM (inactive) and > 100 µM (inactive), respectively.
With `Cc1ccc(/N=N/c2c(O)ccc3cc(S(=O)(=O)O)ccc23)cc1`, the GI50 with T47D is 66.8 µM (inactive); in the test on Hs-578T it was > 100 µM (inactive); in the test on MDA-N, > 100 µM (inactive).
In the case of `CC[N+](CC)(CC)/C(=N\S(=O)(=O)c1ccc(Cl)cc1)[N-]S(=O)(=O)c1cc(C)c(Cl)cc1S`, the GI50 in the test with T47D, in the test with Hs-578T and with MDA-N was > 100 µM (inactive) throughout.
As to `N=C1N(c2ccccc2)C(=S)/C(=N/c2ccccc2)N1c1ccccc1`, the GI50 in the test with T47D was 2.57 µM (inactive); with Hs-578T it was 10 µM (inactive); in the test with MDA-N, 2.45 µM (inactive).
Turning to `CCOC(=O)c1sc2nc(SC)nc3c2c1NC(=O)CN3c1ccc(F)cc1`, the figures for the GI50 in the test with Hs-578T and with MDA-N were 27.1 µM (inactive) and 37.9 µM (inactive), respectively.
For the compound `CO/C(C)=N/CCC1=CCCCC1`, the GI50 in the test with T47D, in the test on Hs-578T and with MDA-N was > 100 µM (inactive) in each case.
In the case of `COc1ccc2c(c1)/C(=C\c1c(Cl)[nH]c3ccccc13)C(=O)N2`, the figures for the GI50 in the test on T47D, in the test with Hs-578T and with MDA-N were 26.1 µM (inactive), 2.51 µM (inactive) and 1.75 µM (inactive), respectively.
On to `Cc1ccc(Nc2nc(=S)[nH]c3[nH]ncc23)cc1`, for which the GI50 was 66.1 µM (inactive) in the test with T47D and 77.1 µM (inactive) in the test with Hs-578T.
Consider `COc1cccc(-c2cc(O)c3cccnc3n2)c1`, for which the GI50 in the test with T47D is > 100 µM (inactive); with Hs-578T, 0.092 µM (active); in the test on MDA-N, 0.0159 µM (active).
As to `CC(=O)C1(c2ccccc2)CCCN(C)CC1` (configuration not stated), the results for the GI50 in the test with T47D, in the test with Hs-578T and in the test with MDA-N were > 100 µM (inactive), > 100 µM (inactive) and > 10 µM (inactive), respectively.
For the compound `O=C(CC(=O)N1N=C(N2CCCCC2)CC1c1ccccc1)Nc1ccc(Cl)cc1` (configuration not stated), the GI50 in the test on T47D, in the test with Hs-578T and in the test on MDA-N was > 100 µM (inactive) throughout.
Take `CCSc1c2cc(OC)ccc2nc2ccc(OC)cc12`: the GI50 was 8.87 µM (inactive) with T47D, > 100 µM (inactive) with Hs-578T and 5.24 µM (inactive) in the test with MDA-N.
For `Cc1ccc2c(c1)Nc1ccccc1P2(=O)O`, the GI50 with T47D and with MDA-N was > 100 µM (inactive) each time.
For `COP(=O)(OC)/C(=C\C1=CN(C(c2ccccc2)(c2ccccc2)c2ccccc2)CN1)NC=O`, the figures for the GI50 in the test with T47D, in the test on Hs-578T and in the test with MDA-N were 17.6 µM (inactive), 23.3 µM (inactive) and 15.1 µM (inactive), respectively.
With `Cc1ccc2nc(-c3ccc(C(C)(C)C)cc3)oc(=O)c2c1`, the GI50 was 21.4 µM (inactive) with T47D, 27.7 µM (inactive) in the test with Hs-578T and 22.9 µM (inactive) in the test on MDA-N.
The like results for `COc1cc([C@@]23OC[C@@H]4[C@@H](OC[C@@H]42)c2cc4c(cc23)OCO4)cc(OC)c1OC` were, in that order, 50.8 µM (inactive), < 0.01 µM (active) and < 0.01 µM (active).
Take `CSC(=S)OC1C(CO[Si](C)(C)C(C)(C)C)OC2OC(C)(C)OC21` (configuration not stated): in the test with MDA-N, the GI50 is 29.2 µM (inactive).
Regarding `COC(=O)c1cc(OS(=O)(=O)C(F)(F)F)c(=O)n2c1CCCC2`, the GI50 in the test on T47D, in the test on Hs-578T and in the test on MDA-N was > 100 µM (inactive) in each case.
As to `Cc1ccc(Cc2nn(C)c(=O)n2-n2cccc2)cc1`, the GI50 in the test with T47D, in the test on Hs-578T and with MDA-N was > 100 µM (inactive) each time.
As for `CCC(C)NC1=NCC(C)S1` (configuration not stated), the GI50 in the test on T47D, with Hs-578T and in the test on MDA-N was > 100 µM (inactive) in each case.
For `O=C(Nc1ccc2c(c1)oc(=O)c1ccccc12)C(Cl)Cl`, the GI50 with T47D, in the test on Hs-578T and with MDA-N was > 100 µM (inactive) each time.
As for `CO/C(=N\N=C(/c1ccccc1)C(F)(F)F)c1ccncc1`, the GI50 in the test with T47D is 35.2 µM (inactive); with Hs-578T it was 49.2 µM (inactive).
In the case of `O=C(/C=C/c1ccc2c(c1)OCO2)Cc1nc2ccccc2[nH]c1=O`, the GI50 in the test with T47D was 12 µM (inactive); in the test with Hs-578T, 14.1 µM (inactive); in the test with MDA-N, 26.6 µM (inactive).
The like results for `CCC(C#N)NCc1cccc(CNC(C#N)CC)c1` (configuration not stated) were, in that order, > 100 µM (inactive), 98.9 µM (inactive) and > 100 µM (inactive).
With `Cc1occc1/C(S)=N\c1ccc(Cl)c(COC(C)(C)C)c1`, the GI50 is 12.1 µM (inactive) with T47D, 20.2 µM (inactive) in the test on Hs-578T and 16.1 µM (inactive) with MDA-N.
With `CN(CCCNC(=O)c1nn(-c2ccccc2)c2c1ccc1ccccc12)CCCNC(=O)c1nn(-c2ccccc2)c2c1ccc1ccccc12`, the GI50 in the test on T47D was 1.82 µM (inactive); in the test on Hs-578T it was 2.58 µM (inactive); in the test with MDA-N, 1.68 µM (inactive).
For the compound `COc1cc2c(cc1OC)CC1c3cc(OC)c(OC)cc3CCN1CC2` (configuration not stated), the values for the GI50 with T47D and in the test on Hs-578T were > 100 µM (inactive) and 22.9 µM (inactive), respectively.
On to `C=C(C)C(=O)OC1C(C(C)CCCO)=C(CO)CC2OC(=O)C(=C)C21` (configuration not stated), for which the GI50 was 17.4 µM (inactive) in the test with T47D, 16.8 µM (inactive) in the test on Hs-578T and 16.7 µM (inactive) in the test on MDA-N.
The like results for `CC1=NC(C)(C)[N+]([O-])=C1` were, in that order, > 10 µM (inactive), > 10 µM (inactive) and > 10 µM (inactive).
`C=CCNC(=O)NNC(O)(C(=O)OCC)C(F)(F)F` (configuration not stated): the GI50 in the test with T47D, in the test with Hs-578T and in the test with MDA-N was > 100 µM (inactive) throughout.
On to `C=C1C(=O)O[C@H]2C(=O)[C@H](C)CCC[C@@](C)(O)/C=C\C[C@@]3(C)O[C@@H]3C[C@@H]12`, for which the GI50 is 23.7 µM (inactive) in the test with T47D, 27 µM (inactive) in the test on Hs-578T and 17.9 µM (inactive) in the test with MDA-N.
As to `ClC1=C(Cc2ccccc2)Cc2ccc3c(c21)CCC3`, the GI50 in the test on T47D was 18.5 µM (inactive); in the test on Hs-578T, 23.2 µM (inactive); in the test on MDA-N it was 36.6 µM (inactive).
The like results for `O=C(O)c1cc2cc(OCc3ccccc3)ccc2[nH]1` were, in that order, > 100 µM (inactive), 4.72 µM (inactive) and > 100 µM (inactive).
`CNC(=O)OCC1C2=C(C(=O)C(C)=C(N)C2=O)N2CC3C(N3C)C12OC` (configuration not stated): in the test on T47D, the GI50 was 21.9 µM (inactive).
Take `CCOC(=O)c1cc(NC(=O)c2ccccc2)c(=O)n2c(cc3c(Cl)cccc32)c1O`: the GI50 in the test with Hs-578T and with MDA-N was > 100 µM (inactive) in each case.
As for `c1ccc(Nc2nnc(-c3ccccc3Nc3ccccc3-c3nnc(Nc4ccccc4)s3)s2)cc1`, the GI50 in the test with MDA-N was > 100 µM (inactive).

The values are drawn from ChEMBL document CHEMBL1201862, “PubChem BioAssay data set” (2004).
